Here are results for 1 compound from patent US20260055107A1, “SERIES OF NITROGEN-CONTAINING BRIDGED HETEROCYCLIC COMPOUNDS AND PREPARATION METHOD THEREFOR” (CMS RESEARCH & DEVELOPMENT PTE. LTD., priority 2022, published 2026).

Molecules are shown by their SMILES.

One may read the Vdss as the apparent volume that relates the amount in the body to the concentration in plasma or blood. Higher therefore signals wide distribution into tissue. A word on the Cmax: it is the maximum level reached in the sampled fluid or tissue. In general, Tmax refers to the time at which the peak concentration occurs.

Data set [1] can be described thus: Plasma protein binding rate test (equilibrium dialysis), dog. The data set is classed as in vitro ADME, beagle dogs. The settings on record: 2 μM, equilibrium dialysis 37° C. 4 hours, beagle dog plasma. The protocol: (§1) Experimental purpose: To evaluate the protein binding rate of the compounds of the present disclosure in the plasma of CD-1 mice, SD rats, beagle dogs, cynomolgus monkeys and humans using equilibrium dialysis.
(§2) The test compounds were diluted with dialysis buffer into the plasma of the above five species to prepare samples with a final concentration of 2 μM. The samples were then added to a 96-well equilibrium dialysis device and dialyzed using phosphate buffered saline solution at 37° C. for 4 hours. Warfarin was used as a control compound in the experiment. The concentration of the test compounds and warfarin in the plasma and buffer was determined using LC-MS/MS. The free fraction of the compound was calculated by the following formula: PPB_Unbound (%)=100*FC/TC, where FC is the concentration of the compound at the buffer end of the dialysis plate; TC is the concentration of the compound at the plasma end of the dialysis plate; To is the concentration of the compound in the plasma sample at time zero.
A general note: Equilibrium dialysis compares concentrations on both sides of a semipermeable membrane.

The nature of data set [2]: Plasma protein binding rate test (equilibrium dialysis), human. The conditions noted are these: 2 μM, equilibrium dialysis 37° C. 4 hours. It is filed as in vitro ADME. Here is the method: as §1, §2
A short description of data set [3]: Pharmacokinetic study in rats. The conditions noted are these: rat. It is filed as in vivo, Male SD rats. The protocol:
Male SD rats (6 to 8 weeks old, weighing 200 to 300 g) were selected.
Injection administration (IV) was carried out at a dose of 1 mpk and a concentration of 0.20 mg/mL with a vehicle of 20% PEG400/10% solutol/70% water. Oral administration (PO) was carried out at a dose of 10 mpk and a concentration of 1 mg/mL with a vehicle of 20% PEG400/10% solutol/70% water.
Sample collection: 0.03 mL of blood samples were collected by puncture of the saphenous vein in experimental animals at each time point, and the actual blood collection time was recorded.
All blood samples were added to commercial 1.5 mL EDTA-K2 anticoagulant tubes. After blood sample collection, DDV was added into the plasma matrix as a stabilizer, wherein the ratio of plasma to Dichlorvos (DDV) solution was 40:1. The DDV solution was a 40 mM DDV solution in acetonitrile/water (1:1). Within half an hour, the mixture was centrifuged at 4° C. and 3000 g for 10 minutes. The supernatant plasma was aspirated, quickly placed in dry ice and stored in a −80° C. refrigerator for LC-MS/MS analysis.
A non-compartmental model in Phoenix WinNonlin 6.3 pharmacokinetic software was used to process the plasma concentration data. The pharmacokinetic parameters were calculated using the linear-log trapezoidal method. C0: concentration needed immediately after intravenous injection; Cmax: the highest plasma drug concentration after administration; Tmax: time needed to reach drug peak concentration after administration; T1/2: time needed for plasma drug concentration to decrease by half; Vdss: apparent volume of distribution, refers to the proportional constant between the amount of drug in the body and the plasma drug concentration when the drug reaches dynamic equilibrium in the body. Cl: clearance rate, refers to the apparent volume of distribution of the drug cleared from the body per unit time; AUC0-last: area under the drug time curve, refers to the area surrounded by the plasma drug concentration curve against the time axis; F: bioavailability.

A further data set deals with Caco-2 cells. The data set can be described thus: In vitro Caco-2 cell permeability test. It is filed as in vitro ADME. The conditions noted are these: Caco-2, 2 μM, 120 minutes. The protocol: Cell culture was performed using MEM (minimum essential medium) supplemented with 2 mM L-glutamine, 10% fetal bovine serum (FBS), 100 U/mL penicillin-G and 100 μg/mL streptomycin. Cell culture conditions were 37±1° C., 5% CO2 and saturated humidity. When the cells reached a density of 80 to 90%, trypsin (0.05%, w/v)/EDTA (0.02%, w/v) digestion solution was added to digest the cells before seeding the plate. Cells were seeded in BD Falcon Transwell-96 well plates at a seeding density of 1×10^5 cells/cm^2. The cells were incubated in a carbon dioxide incubator for 22 days and then used for transport experiments.
Hank's balanced salt buffer (pH 7.40±0.05) containing 10 mM HEPES was used as the transport buffer in this project. The bidirectional transport of the test compound and the positive drug digoxin was tested at a concentration of 2 μM, with two parallel samples each, and the transport of fenoterol and propranolol from the apical to the basal end (A-B) was tested. The concentration of DMSO in the incubation system was controlled to 1% or less. After loading the sample, the cell plate was incubated at 37±1° C., 5% CO2 and saturated humidity for 120 minutes. All samples were vortexed and centrifuged at 3220 rpm and 20° C. for 20 minutes. The control sample and test sample were diluted in a 1:1 (v/v) ratio with ultrapure water and stored at 4° C., and the analytical tests were performed by liquid chromatography tandem mass spectrometry (LC/MS/MS).
In this study, the liquid chromatography tandem mass spectrometry (LC/MS/MS) method was used to semi-quantitatively analyze the peak area ratios of the test compounds and control samples fenoterol, propranolol and digoxin to the internal standard in the starting solution, receiving solution and administration well supernatant. The apparent permeability coefficient (Papp, cm/s), efflux rate and recovery rate were calculated using the following formula: • (1) Papp=(dCr/dt)×Vr/(A×C0), dCr/dt is the cumulative concentration of the compound at the receiving end per unit time (μM/s); Vr is the volume of the solution at the receiving end (0.075 mL and 0.250 mL for the solution at the apical and basal ends, respectively); A is the relative surface area of the cell monolayer (0.0804 cm^2); C0 is the starting concentration (nM) of the test sample at the administration end or the peak area ratio of the control sample. • (2) Efflux ratio=Papp(BA)/Papp(AB) • (3) Recovery rate (%)=100×[(Vr×Cr)+(Vd×Cd)]/(Vd×C0), C0 is the starting concentration (nM) of the test sample at the administration end or the peak area ratio of the control sample; Vd is the volume at the administration end (0.075 mL on the apical side and 0.250 mL on the basal side); Cd and Cr are the final concentration (nM) of the test sample or the peak area ratio of the control sample at the administration and receiving ends, respectively.

Consider `COc1cc(C)c2[nH]ccc2c1CN1C2CCC1(c1ccc(C(=O)O)cc1)CC(C1CC1)C2` (single isomer, unassigned) [Compound 3B], for which the “Plasma protein binding (PPB) unbound, Dog (D)” value in data set [1] is listed as 25.6%. Moreover, the “Plasma protein binding (PPB) unbound, Human (H)” value in data set [2] is 15.2%. Moreover, in data set [3] (IV 1 mpk), the AUC0-last is 10.573 µM·h, the C0 is 6.2 µM, the Cl is 3.5 mL/min/kg and the T1/2 turned out to be 2.06 h. In data set [3] (IV 1 mpk), this compound showed a Vdss of 0.53 L/kg. Further, in data set [3] (PO 10 mpk), the AUC0-last came to 33.029 µM·h, the Cmax worked out at 7.83 µM, the T1/2 is given as 9.90 h and the Tmax was 0.50 h. The F in data set [3] (PO 10 mpk vs IV 1 mpk) is listed as 31.2%. Further, the Apparent permeability coefficient with Caco-2 cells (pH 7.40, direction not given) is listed as 1.21 10^−6 cm/s. Also, the Efflux ratio in the data set on Caco-2 cells (Papp(BA)/Papp(AB)) came out at 22.6.
